The target of this test is T1, Dihydrofolate reductase (Rattus norvegicus, UniProt Q920D2).
T1 sequence (Q920D2 whole entry): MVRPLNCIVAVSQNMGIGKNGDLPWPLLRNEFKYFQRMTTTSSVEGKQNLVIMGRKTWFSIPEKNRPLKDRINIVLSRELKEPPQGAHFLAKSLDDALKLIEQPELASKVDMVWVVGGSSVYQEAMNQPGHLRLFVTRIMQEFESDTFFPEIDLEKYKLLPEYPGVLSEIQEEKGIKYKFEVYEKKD
Nature of the test: Inhibition of rat liver Dihydrofolate reductase (rlDHFR).

The term IC50 denotes the concentration that gives 50% inhibition. A high value points to a need for much substance. The compound `Nc1nc(N)c2cc(COC(=O)c3ccc(C(=O)N[C@H](CCC(=O)O)C(=O)O)cc3)ccc2n1` registered an IC50 of 150 nM. Consider `Nc1nc(N)c2cc(COC(=O)c3ccc(C(=O)N[C@@H](CCCC(=O)O)C(=O)O)cc3)ccc2n1`, for which it took 160 nM to reach half-maximal inhibition (IC50).

The values are drawn from ChEMBL document CHEMBL1145863, “Design and synthesis of dihydrofolate reductase inhibitors encompassing a bridging ester group. Evaluation in a mouse colitis model” (J Med Chem, 2003).
